Laboratory results taken from PubChem BioAssay (NCI).
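Where inhibition never reached the appropriate level, the endpoint shown equals the highest concentration tested. Otherwise, values were interpolated linearly from a five-concentration, 48-hour dose response in 96-well plates. TGI: total growth inhibition.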

Experiments:
Assay in all cases: growth of human tumour cells (NCI), 48 h
COLO 205 colon = tested on: COLO 205 colon
SF-295 CNS = tested on: SF-295 CNS
HT29 colon = tested on: HT29 colon
T-47D breast = tested on: T-47D breast
DU-145 prostate = tested on: DU-145 prostate
HL-60(TB) leukemia = tested on: HL-60(TB) leukemia
MDA-N = tested on: MDA-N
SNB-75 CNS = tested on: SNB-75 CNS
MCF7 breast = tested on: MCF7 breast
MDA-MB-435 = tested on: MDA-MB-435
SN12C renal = tested on: SN12C renal
SK-MEL-28 melanoma = tested on: SK-MEL-28 melanoma
HCC-2998 colon = tested on: HCC-2998 colon
HOP-62 NSCLC = tested on: HOP-62 NSCLC
UACC-62 melanoma = tested on: UACC-62 melanoma
KM12 colon = tested on: KM12 colon
K-562 leukemia = tested on: K-562 leukemia
SK-MEL-5 melanoma = tested on: SK-MEL-5 melanoma
OVCAR-4 ovarian = tested on: OVCAR-4 ovarian
OVCAR-8 ovarian = tested on: OVCAR-8 ovarian
RPMI-8226 leukemia = tested on: RPMI-8226 leukemia
786-0 renal = tested on: 786-0 renal
CAKI-1 renal = tested on: CAKI-1 renal
UACC-257 melanoma = tested on: UACC-257 melanoma
IGROV1 ovarian = tested on: IGROV1 ovarian
NCI-H23 lung = tested on: NCI-H23 lung
RXF 393 renal = tested on: RXF 393 renal
SK-OV-3 ovarian = tested on: SK-OV-3 ovarian
SF-268 CNS = tested on: SF-268 CNS
MDA-MB-231 breast = tested on: MDA-MB-231 breast
EKVX NSCLC = tested on: EKVX NSCLC
A549 NSCLC = tested on: A549 NSCLC
CCRF-CEM leukemia = tested on: CCRF-CEM leukemia
MALME-3M melanoma = tested on: MALME-3M melanoma
TK-10 renal = tested on: TK-10 renal
SW-620 colon = tested on: SW-620 colon
HOP-92 NSCLC = tested on: HOP-92 NSCLC
HCT-15 colon = tested on: HCT-15 colon
SR leukemia = tested on: SR leukemia
MOLT-4 leukemia = tested on: MOLT-4 leukemia
NCI/ADR-RES ovarian = tested on: NCI/ADR-RES ovarian
NCI-H226 lung = tested on: NCI-H226 lung
SNB-19 CNS = tested on: SNB-19 CNS
U251 CNS = tested on: U251 CNS
UO-31 renal = tested on: UO-31 renal
LOX IMVI melanoma = tested on: LOX IMVI melanoma
HCT-116 colon = tested on: HCT-116 colon
OVCAR-5 ovarian = tested on: OVCAR-5 ovarian
SK-MEL-2 melanoma = tested on: SK-MEL-2 melanoma
NCI-H522 lung = tested on: NCI-H522 lung
HS 578T breast = tested on: HS 578T breast
SF-539 CNS = tested on: SF-539 CNS
PC-3 prostate = tested on: PC-3 prostate
BT-549 breast = tested on: BT-549 breast
NCI-H460 lung = tested on: NCI-H460 lung
M14 melanoma = tested on: M14 melanoma
ACHN renal = tested on: ACHN renal
OVCAR-3 ovarian = tested on: OVCAR-3 ovarian

CCN1CCNc2c3cc(OC)ccc3nc3c([N+](=O)[O-])ccc1c23
TGI (COLO 205 colon): 5.39 µM | TGI (SF-295 CNS): 5.55 µM | TGI (HT29 colon): > 10 µM | TGI (T-47D breast): > 10 µM | TGI (DU-145 prostate): > 10 µM | TGI (HL-60(TB) leukemia): 2.37 µM | TGI (MDA-N): 2.1 µM | TGI (SNB-75 CNS): 4.38 µM | TGI (MCF7 breast): 6.51 µM | TGI (MDA-MB-435): 2.2 µM | TGI (SN12C renal): 5.74 µM | TGI (SK-MEL-28 melanoma): 5.93 µM | TGI (HCC-2998 colon): 2.14 µM | TGI (HOP-62 NSCLC): 3.83 µM | TGI (UACC-62 melanoma): 4.58 µM | TGI (KM12 colon): 3.42 µM | TGI (K-562 leukemia): > 10 µM | TGI (SK-MEL-5 melanoma): 2.53 µM | TGI (OVCAR-4 ovarian): 4.33 µM | TGI (OVCAR-8 ovarian): > 10 µM | TGI (RPMI-8226 leukemia): 3.25 µM | TGI (786-0 renal): 9.61 µM | TGI (CAKI-1 renal): > 10 µM | TGI (UACC-257 melanoma): 3.7 µM | TGI (IGROV1 ovarian): > 10 µM | TGI (NCI-H23 lung): 5.46 µM | TGI (RXF 393 renal): 2.01 µM | TGI (SK-OV-3 ovarian): > 10 µM | TGI (SF-268 CNS): > 10 µM | TGI (MDA-MB-231 breast): 4.56 µM | TGI (EKVX NSCLC): 6.13 µM | TGI (A549 NSCLC): > 10 µM | TGI (CCRF-CEM leukemia): 3.22 µM | TGI (MALME-3M melanoma): 2.29 µM | TGI (TK-10 renal): > 10 µM | TGI (SW-620 colon): > 10 µM | TGI (HOP-92 NSCLC): 4.57 µM | TGI (HCT-15 colon): 4.29 µM | TGI (SR leukemia): 1.16 µM | TGI (MOLT-4 leukemia): 1.34 µM

COc1ccccc1NS(=O)(=O)c1ccc2ncn(NS(=O)(=O)c3ccc(Cl)cc3)c(=O)c2c1
TGI (COLO 205 colon): > 100 µM | TGI (SF-295 CNS): > 100 µM | TGI (HT29 colon): > 100 µM | TGI (NCI/ADR-RES ovarian): > 100 µM | TGI (DU-145 prostate): > 100 µM | TGI (HL-60(TB) leukemia): > 100 µM | TGI (MDA-N): > 100 µM | TGI (SNB-75 CNS): > 100 µM | TGI (MCF7 breast): > 100 µM | TGI (MDA-MB-435): > 100 µM | TGI (NCI-H226 lung): > 100 µM | TGI (SNB-19 CNS): > 100 µM | TGI (SN12C renal): > 100 µM | TGI (U251 CNS): > 100 µM | TGI (SK-MEL-28 melanoma): > 100 µM | TGI (UO-31 renal): > 100 µM | TGI (HCC-2998 colon): > 100 µM | TGI (LOX IMVI melanoma): > 100 µM | TGI (HOP-62 NSCLC): > 100 µM | TGI (UACC-62 melanoma): > 100 µM | TGI (KM12 colon): > 100 µM | TGI (HCT-116 colon): > 100 µM | TGI (OVCAR-5 ovarian): > 100 µM | TGI (K-562 leukemia): > 100 µM | TGI (SK-MEL-2 melanoma): > 100 µM | TGI (OVCAR-4 ovarian): > 100 µM | TGI (NCI-H522 lung): > 100 µM | TGI (OVCAR-8 ovarian): > 100 µM | TGI (HS 578T breast): > 100 µM | TGI (RPMI-8226 leukemia): > 100 µM | TGI (786-0 renal): > 100 µM | TGI (CAKI-1 renal): > 100 µM | TGI (SF-539 CNS): > 100 µM | TGI (UACC-257 melanoma): > 100 µM | TGI (IGROV1 ovarian): > 100 µM | TGI (NCI-H23 lung): > 100 µM | TGI (PC-3 prostate): > 100 µM | TGI (SK-OV-3 ovarian): > 100 µM | TGI (SF-268 CNS): > 100 µM | TGI (MDA-MB-231 breast): > 100 µM | TGI (EKVX NSCLC): > 100 µM | TGI (BT-549 breast): > 100 µM | TGI (NCI-H460 lung): > 100 µM | TGI (A549 NSCLC): > 100 µM | TGI (CCRF-CEM leukemia): > 100 µM | TGI (MALME-3M melanoma): > 100 µM | TGI (TK-10 renal): > 100 µM | TGI (SW-620 colon): > 100 µM | TGI (HOP-92 NSCLC): > 100 µM | TGI (M14 melanoma): > 100 µM | TGI (HCT-15 colon): > 100 µM | TGI (ACHN renal): > 100 µM | TGI (SR leukemia): > 100 µM | TGI (OVCAR-3 ovarian): > 100 µM | TGI (MOLT-4 leukemia): > 100 µM
